Results: patent US20080227823A1, “AMIDE DERIVATIVES AS CALCIUM CHANNEL BLOCKERS” (priority 2007, published 2008)

Legend:
Assay in all cases: T-type calcium channel block, whole cell patch clamp in HEK cells
Assay type in all cases: cell-based
Details in all cases: measured at 1 μM drug, mainly non-inactivated protocol
[1] = molecular target: T1, human α1G T-type channels (Homo sapiens, UniProt O43497)
T1 construct: expressed in transfected cells; host or cells: HEK 293
Experimental: (§1) T-type calcium channel blocking activity was assayed in human embryonic kidney cells, HEK 293, stably transfected with the T-type calcium channel subunits. Briefly, cells were cultured in Dulbecco's modified eagle medium (DMEM) supplemented with 10% fetal bovine serum, 200 U/ml penicillin and 0.2 mg/ml streptomycin at 37° C. with 5% CO2. At 85% confluency cells were split with 0.25% trypsin/1 mM EDTA and plated at 10% confluency on glass coverslips. At 12 hours the medium was replaced and the cells stably transfected using a standard calcium phosphate protocol and the appropriate calcium channel cDNA's. Fresh DMEM was supplied and the cells transferred to 28° C./5% CO2. Cells were incubated for 1 to 2 days prior to whole cell recording.
(§2) Standard patch-clamp techniques were employed to identify blockers of T-type currents. Briefly, previously described HEK cell lines stably expressing human α1G, α1H and α1I T-type channels were used for all the recordings (passage #: 4-20, 37° C., 5% CO2). Whole cell patch clamp experiments were performed using an Axopatch 200B amplifier (Axon Instruments, Burlingame, Calif.) linked to a personal computer equipped with pCLAMP software. Data were analyzed using Clampfit (Axon Instruments) and SigmaPlot 4.0 (Jandel Scientific). To obtain T-type currents, plastic dishes containing semi-confluent cells were positioned on the stage of a ZEISS AXIOVERT S100 microscope after replacing the culture medium with external solution (see below). Whole-cell patches were obtained using pipettes (borosilicate glass with filament, O.D.: 1.5 mm, I.D.: 0.86 mm, 10 cm length), fabricated on a SUTTER P-97 puller with resistance values of ˜5 MΩ (see below for internal solution).
(§3) T-type currents were reliably obtained by using two voltage protocols: • (1) “non-inactivating”, and • (2) “inactivation”
(§4) In the non-inactivating protocol, the holding potential is set at −110 mV and with a pre-pulse at −100 mV for 1 second prior to the test pulse at −40 mV for 50 ms. In the inactivation protocol, the pre-pulse is at approximately −85 mV for 1 second, which inactivates about 15% of the T-type channels.
(§5) Test compounds were dissolved in external solution, 0.1-0.01% DMSO. After 10 min rest, they were applied by gravity close to the cell using a WPI microfil tubing. The “non-inactivated” pre-pulse was used to examine the resting block of a compound. The “inactivated” protocol was employed to study voltage-dependent block. However, the initial data shown below were mainly obtained using the non-inactivated protocol only. Kd values are shown for various compounds of the invention in Table 4 measured at 1 μM for the drug of interest except for compound 18 which was measured at 200 nM.

[2] = molecular target: T2, human α1I T-type channels (Homo sapiens, UniProt Q9P0X4)
T2 construct: expressed in transfected cells; host or cells: HEK 293
Experimental: as §1, §2, §3, §4, §5

[3] = molecular target: T3, human α1H T-type channels (Homo sapiens, UniProt O95180)
T3 construct: expressed in transfected cells; host or cells: HEK 293
Experimental: as §1, §2, §3, §4, §5

T1 sequence (O43497 whole entry): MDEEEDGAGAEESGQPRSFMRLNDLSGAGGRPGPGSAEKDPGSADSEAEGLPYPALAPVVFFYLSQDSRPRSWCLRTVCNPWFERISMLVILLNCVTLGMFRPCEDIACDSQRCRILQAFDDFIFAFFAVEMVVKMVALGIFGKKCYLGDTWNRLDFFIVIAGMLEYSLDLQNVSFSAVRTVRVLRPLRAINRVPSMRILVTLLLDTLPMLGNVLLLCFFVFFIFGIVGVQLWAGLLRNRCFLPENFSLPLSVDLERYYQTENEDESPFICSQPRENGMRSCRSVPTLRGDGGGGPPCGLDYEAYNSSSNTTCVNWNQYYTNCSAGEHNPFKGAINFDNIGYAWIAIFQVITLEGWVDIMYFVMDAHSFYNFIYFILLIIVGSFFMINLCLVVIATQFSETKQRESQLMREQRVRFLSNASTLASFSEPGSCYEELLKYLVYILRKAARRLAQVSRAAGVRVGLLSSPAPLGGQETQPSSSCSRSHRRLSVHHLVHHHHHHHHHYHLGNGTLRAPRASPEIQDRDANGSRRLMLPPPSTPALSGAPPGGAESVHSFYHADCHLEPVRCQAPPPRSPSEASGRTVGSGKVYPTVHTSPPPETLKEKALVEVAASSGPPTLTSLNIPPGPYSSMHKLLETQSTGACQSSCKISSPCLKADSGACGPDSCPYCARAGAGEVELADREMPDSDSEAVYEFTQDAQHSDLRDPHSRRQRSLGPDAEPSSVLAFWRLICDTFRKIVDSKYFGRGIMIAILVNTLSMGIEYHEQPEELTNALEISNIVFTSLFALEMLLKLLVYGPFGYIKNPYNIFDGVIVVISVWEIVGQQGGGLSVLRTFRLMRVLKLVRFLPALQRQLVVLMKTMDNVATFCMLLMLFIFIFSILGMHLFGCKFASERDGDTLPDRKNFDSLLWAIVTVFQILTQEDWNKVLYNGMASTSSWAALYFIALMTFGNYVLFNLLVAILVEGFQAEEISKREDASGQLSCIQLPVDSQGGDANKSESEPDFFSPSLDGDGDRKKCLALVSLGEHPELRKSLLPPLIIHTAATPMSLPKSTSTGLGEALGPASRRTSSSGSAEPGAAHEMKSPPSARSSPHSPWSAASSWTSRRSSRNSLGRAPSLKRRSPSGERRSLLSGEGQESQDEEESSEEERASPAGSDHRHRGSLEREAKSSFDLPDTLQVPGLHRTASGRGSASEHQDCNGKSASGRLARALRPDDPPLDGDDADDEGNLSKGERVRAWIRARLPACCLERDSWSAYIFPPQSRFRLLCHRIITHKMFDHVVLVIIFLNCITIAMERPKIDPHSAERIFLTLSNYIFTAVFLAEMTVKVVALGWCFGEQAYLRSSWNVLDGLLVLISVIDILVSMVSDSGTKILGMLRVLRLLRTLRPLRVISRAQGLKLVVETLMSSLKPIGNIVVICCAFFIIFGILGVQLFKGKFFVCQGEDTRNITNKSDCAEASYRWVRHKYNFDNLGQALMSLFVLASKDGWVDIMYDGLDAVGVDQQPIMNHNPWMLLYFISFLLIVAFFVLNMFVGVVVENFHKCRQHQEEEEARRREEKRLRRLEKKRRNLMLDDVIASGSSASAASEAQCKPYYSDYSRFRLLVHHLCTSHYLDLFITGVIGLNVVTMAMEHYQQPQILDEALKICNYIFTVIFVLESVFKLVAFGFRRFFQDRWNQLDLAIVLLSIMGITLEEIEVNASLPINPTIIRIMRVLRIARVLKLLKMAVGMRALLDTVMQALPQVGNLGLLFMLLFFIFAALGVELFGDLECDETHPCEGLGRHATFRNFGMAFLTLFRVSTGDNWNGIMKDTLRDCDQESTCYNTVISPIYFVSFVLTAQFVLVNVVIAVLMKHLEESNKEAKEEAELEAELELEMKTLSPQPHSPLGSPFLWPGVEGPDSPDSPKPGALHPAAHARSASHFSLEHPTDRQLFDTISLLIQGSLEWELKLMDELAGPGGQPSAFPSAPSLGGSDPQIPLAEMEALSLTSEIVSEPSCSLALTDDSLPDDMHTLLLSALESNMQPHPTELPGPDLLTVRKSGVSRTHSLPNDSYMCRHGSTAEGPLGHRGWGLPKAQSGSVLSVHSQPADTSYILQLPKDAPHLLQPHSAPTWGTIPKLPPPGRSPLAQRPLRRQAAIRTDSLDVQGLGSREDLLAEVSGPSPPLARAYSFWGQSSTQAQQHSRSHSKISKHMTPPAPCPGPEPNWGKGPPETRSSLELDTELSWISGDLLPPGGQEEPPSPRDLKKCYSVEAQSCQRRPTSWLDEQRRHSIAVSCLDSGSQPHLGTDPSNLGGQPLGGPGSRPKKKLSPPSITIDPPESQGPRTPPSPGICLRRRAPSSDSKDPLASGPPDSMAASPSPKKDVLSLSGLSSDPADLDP
T3 sequence (O95180 whole entry): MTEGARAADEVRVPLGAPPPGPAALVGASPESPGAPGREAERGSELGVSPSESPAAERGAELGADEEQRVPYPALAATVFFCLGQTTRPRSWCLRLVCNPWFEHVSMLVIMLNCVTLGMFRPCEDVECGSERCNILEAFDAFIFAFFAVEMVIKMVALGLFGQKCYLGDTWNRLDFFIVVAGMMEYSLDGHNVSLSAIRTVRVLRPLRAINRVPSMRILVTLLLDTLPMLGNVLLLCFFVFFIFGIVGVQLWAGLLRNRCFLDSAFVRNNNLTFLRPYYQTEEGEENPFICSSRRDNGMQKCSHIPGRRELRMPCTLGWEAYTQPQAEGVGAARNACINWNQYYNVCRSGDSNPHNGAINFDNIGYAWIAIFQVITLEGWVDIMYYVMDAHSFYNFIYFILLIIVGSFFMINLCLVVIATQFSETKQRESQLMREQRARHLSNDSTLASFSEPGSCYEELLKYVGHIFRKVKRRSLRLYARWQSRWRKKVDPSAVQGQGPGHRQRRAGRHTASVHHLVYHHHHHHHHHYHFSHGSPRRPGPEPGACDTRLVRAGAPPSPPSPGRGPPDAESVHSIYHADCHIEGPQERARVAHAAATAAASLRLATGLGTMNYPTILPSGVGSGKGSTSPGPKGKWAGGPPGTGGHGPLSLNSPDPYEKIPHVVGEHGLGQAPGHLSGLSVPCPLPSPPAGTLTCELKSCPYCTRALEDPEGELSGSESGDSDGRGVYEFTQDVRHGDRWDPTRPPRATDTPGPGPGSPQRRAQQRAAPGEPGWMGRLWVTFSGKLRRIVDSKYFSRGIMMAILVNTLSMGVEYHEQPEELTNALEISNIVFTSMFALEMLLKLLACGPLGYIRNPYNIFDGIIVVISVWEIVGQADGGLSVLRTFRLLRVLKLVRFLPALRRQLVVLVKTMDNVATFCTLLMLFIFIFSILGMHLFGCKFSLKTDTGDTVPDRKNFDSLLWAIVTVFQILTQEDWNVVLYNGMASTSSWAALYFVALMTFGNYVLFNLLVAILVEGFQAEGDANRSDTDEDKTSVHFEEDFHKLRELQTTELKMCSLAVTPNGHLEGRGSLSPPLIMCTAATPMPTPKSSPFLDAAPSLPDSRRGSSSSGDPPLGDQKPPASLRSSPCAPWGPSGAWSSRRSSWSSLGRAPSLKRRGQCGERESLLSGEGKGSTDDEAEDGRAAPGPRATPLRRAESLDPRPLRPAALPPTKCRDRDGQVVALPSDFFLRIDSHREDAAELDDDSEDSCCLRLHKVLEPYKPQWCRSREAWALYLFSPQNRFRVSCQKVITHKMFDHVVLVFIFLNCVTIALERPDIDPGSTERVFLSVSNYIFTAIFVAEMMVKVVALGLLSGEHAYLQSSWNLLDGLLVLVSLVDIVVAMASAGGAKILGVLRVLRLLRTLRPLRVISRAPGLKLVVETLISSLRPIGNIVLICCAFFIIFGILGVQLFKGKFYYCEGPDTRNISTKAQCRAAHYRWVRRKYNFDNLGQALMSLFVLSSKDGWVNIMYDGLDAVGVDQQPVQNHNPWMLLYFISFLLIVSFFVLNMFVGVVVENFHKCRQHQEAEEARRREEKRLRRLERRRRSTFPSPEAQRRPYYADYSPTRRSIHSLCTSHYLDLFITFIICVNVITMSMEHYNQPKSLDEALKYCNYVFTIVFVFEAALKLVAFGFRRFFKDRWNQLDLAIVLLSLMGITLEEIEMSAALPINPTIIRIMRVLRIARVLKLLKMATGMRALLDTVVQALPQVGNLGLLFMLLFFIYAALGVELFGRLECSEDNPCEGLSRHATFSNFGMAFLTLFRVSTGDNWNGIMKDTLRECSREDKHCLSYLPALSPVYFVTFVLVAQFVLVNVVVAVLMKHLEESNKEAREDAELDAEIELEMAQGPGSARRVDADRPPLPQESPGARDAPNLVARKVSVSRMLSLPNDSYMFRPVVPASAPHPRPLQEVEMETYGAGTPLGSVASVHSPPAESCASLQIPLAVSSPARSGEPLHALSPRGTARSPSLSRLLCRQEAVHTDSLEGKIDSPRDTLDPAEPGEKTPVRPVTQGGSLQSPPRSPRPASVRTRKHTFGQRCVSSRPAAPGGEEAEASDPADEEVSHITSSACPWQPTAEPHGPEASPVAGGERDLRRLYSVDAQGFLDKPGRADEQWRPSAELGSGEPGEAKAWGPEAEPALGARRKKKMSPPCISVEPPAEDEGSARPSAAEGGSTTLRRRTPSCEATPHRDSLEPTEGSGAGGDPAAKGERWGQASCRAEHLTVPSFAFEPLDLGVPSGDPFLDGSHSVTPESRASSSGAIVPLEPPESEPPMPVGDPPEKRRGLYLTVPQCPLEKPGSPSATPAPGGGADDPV

CC(C)(NC(=O)/C=C/c1ccc(F)c(Br)c1)C(=O)NCCc1c[nH]c2ccc(F)cc12 [Compound 15, (E)-3-(3-bromo-4-fluorophenyl)-N-(1-(2-(5-fluoro-1H-indol-3-yl)ethylamino)-2-methyl-1-oxopropan-2-yl)acrylamide]
Kd [1]: 360 nM | Kd [2]: 480 nM

O=C(/C=C/c1ccc(F)cc1)NC1(C(=O)Nc2cccc(C(F)(F)F)c2)CCNCC1 [Compound 33, (E)-4-(3-(4-fluorophenyl)acrylamido)-N-(3-(trifluoromethyl)phenyl)piperidine-4-carboxamide]
Kd [1]: 2450 nM

CC(C)(O)CN1CCC(NC(=O)/C=C/c2ccc(F)cc2)(C(=O)NCCc2c[nH]c3ccc(F)cc23)CC1 [Compound 69, (E)-N-(2-(5-fluoro-1H-indol-3-yl)ethyl)-4-(3-(4-fluorophenyl)acrylamido)-1-(2-hydroxy-2-methylpropyl)piperidine-4-carboxamide]
Kd [1]: 3630 nM

O=C(/C=C/c1ccc(F)c(F)c1)NC1(C(=O)Nc2ccccc2)CCNCC1 [Compound 34, (E)-4-(3-(3,4-difluorophenyl)acrylamido)-N-phenylpiperidine-4-carboxamide]
Kd [1]: 3290 nM

CC(=O)N1CCC(NC(=O)/C=C/c2ccc(F)c(Br)c2)(C(=O)NCCc2c[nH]c3ccc(F)cc23)CC1 [Compound 21, (E)-1-acetyl-4-(3-(3-bromo-4-fluorophenyl)acrylamido)-N-(2-(5-fluoro-1H-indol-3-yl)ethyl)piperidine-4-carboxamide]
Kd [1]: 2620 nM

NC(=O)CN1CCC(NC(=O)/C=C/c2ccc(F)cc2)(C(=O)Nc2cc(C(F)(F)F)cc(C(F)(F)F)c2)CC1 [Compound 62, (E)-1-(2-amino-2-oxoethyl)-N-(3,5-bis(trifluoromethyl)phenyl)-4-(3-(4-fluorophenyl)acrylamido)piperidine-4-carboxamide]
Kd [1]: 280 nM

O=C(/C=C\c1ccccc1)NC1(C(=O)Nc2cc(C(F)(F)F)cc(C(F)(F)F)c2)CCNCC1 [Compound 40, (Z)-N-(3,5-bis(trifluoromethyl)phenyl)-4-(3-phenylacrylamido)piperidine-4-carboxamide]
Kd [3]: 2420 nM | Kd [1]: 130 nM

CN(CCc1c[nH]c2ccc(F)cc12)C(=O)C1(NC(=O)/C=C/c2ccc(F)cc2)CCN(C(=O)CN)CC1 [Compound 67, (E)-1-(2-aminoacetyl)-N-(2-(5-fluoro-1H-indol-3-yl)ethyl)-4-(3-(4-fluorophenyl)acrylamido)-N-methylpiperidine-4-carboxamide]
Kd [1]: 1020 nM

Cc1cc(/C=C/C(=O)NC2(C(=O)Nc3cc(C(F)(F)F)cc(C(F)(F)F)c3)CCN(C)CC2)ccc1F [Compound 43, (E)-N-(3,5-bis(trifluoromethyl)phenyl)-4-(3-(4-fluoro-3-methylphenyl)acrylamido)-1-methylpiperidine-4-carboxamide]
Kd [3]: 1120 nM | Kd [1]: 80 nM

O=C(/C=C/c1ccc(F)cc1)NC1(C(=O)Nc2cc(C(F)(F)F)cc(C(F)(F)F)c2)CCN(C2CCOCC2)CC1 [Compound 54, (E)-N-(3,5-bis(trifluoromethyl)phenyl)-4-(3-(4-fluorophenyl)acrylamido)-1-(tetrahydro-2H-pyran-4-yl)piperidine-4-carboxamide]
Kd [3]: 6320 nM | Kd [1]: 210 nM

O=C(/C=C/c1ccc(F)cc1)NC1(C(=O)Nc2cc(C(F)(F)F)cc(C(F)(F)F)c2)CCN(c2ncccn2)CC1 [Compound 52, (E)-N-(3,5-bis(trifluoromethyl)phenyl)-4-(3-(4-fluorophenyl)acrylamido)-1-(pyrimidin-2-yl)piperidine-4-carboxamide]
Kd [1]: 160 nM

COCCC(=O)N1CCC(NC(=O)/C=C/c2ccc(F)c(Br)c2)(C(=O)NCCc2c[nH]c3ccc(F)cc23)CC1 [Compound 25, (E)-4-(3-(3-bromo-4-fluorophenyl)acrylamido)-N-(2-(5-fluoro-1H-indol-3-yl)ethyl)-1-(3-methoxypropanoyl)piperidine-4-carboxamide]
Kd [1]: 5370 nM

NCC(=O)N1CCC(NC(=O)/C=C/c2ccc(F)cc2)(C(=O)Nc2cc(C(F)(F)F)cc(C(F)(F)F)c2)CC1 [Compound 63, (E)-1-(2-aminoacetyl)-N-(3,5-bis(trifluoromethyl)phenyl)-4-(3-(4-fluorophenyl)acrylamido)piperidine-4-carboxamide]
Kd [1]: 90 nM

O=C(/C=C/c1ccc(F)cc1)NC1(C(=O)Nc2cc(Cl)cc(Cl)c2)CCNCC1 [Compound 44, (E)-N-(3,5-dichlorophenyl)-4-(3-(4-fluorophenyl)acrylamido)piperidine-4-carboxamide]
Kd [3]: 1610 nM | Kd [1]: 320 nM

O=C(NCCc1c[nH]c2ccc(F)cc12)C1CCCN1C(=O)/C=C/c1ccc(F)c(Br)c1 (stereo in doubt) [Compound 19, (R,E)-1-(3-(3-bromo-4-fluorophenyl)acryloyl)-N-(2-(5-fluoro-1H-indol-3-yl)ethyl)pyrrolidine-2-carboxamide]
Kd [1]: 1350 nM

CCNC(=O)N1CCC(NC(=O)/C=C/c2ccc(F)c(Br)c2)(C(=O)NCCc2c[nH]c3ccc(F)cc23)CC1 [Compound 26, (E)-4-(3-(3-bromo-4-fluorophenyl)acrylamido)-N1-ethyl-N4-(2-(5-fluoro-1H-indol-3-yl)ethyl)piperidine-1,4-dicarboxamide]
Kd [1]: 550 nM

O=C(/C=C/c1ccc(F)c(Br)c1)NC1(C(=O)NCCc2c[nH]c3ccc(F)cc23)CCOCC1 [Compound 16, (E)-4-(3-(3-bromo-4-fluorophenyl)acrylamido)-N-(2-(5-fluoro-1H-indol-3-yl)ethyl)tetrahydro-2H-pyran-4-carboxamide]
Kd [1]: 430 nM

O=C(/C=C/c1ccc(F)cc1)NC1(C(=O)Nc2ccccc2C(F)(F)F)CCNCC1 [Compound 46, (E)-4-(3-(4-fluorophenyl)acrylamido)-N-(2-(trifluoromethyl)phenyl)piperidine-4-carboxamide]
Kd [1]: 14600 nM

COCCOC1CCC(NC(=O)/C=C/c2ccc(F)cc2)(C(=O)Nc2cc(C(F)(F)F)cc(C(F)(F)F)c2)CC1 (stereo not drawn) [Compound 61, (E)-N-(3,5-bis(trifluoromethyl)phenyl)-1-(3-(4-fluorophenyl)acrylamido)-4-(2-methoxyethoxy)cyclohexanecarboxamide]
Kd [1]: 990 nM

O=C(/C=C/c1ccc(F)c(F)c1)NC1(C(=O)Nc2ccccc2Oc2ccccc2)CCNCC1 [Compound 50, (E)-4-(3-(3,4-difluorophenyl)acrylamido)-N-(2-phenoxyphenyl)piperidine-4-carboxamide]
Kd [3]: 2970 nM | Kd [1]: 80 nM

COCCN1CCC(NC(=O)/C=C/c2ccc(F)cc2)(C(=O)Nc2cc(C(F)(F)F)cc(C(F)(F)F)c2)CC1 [Compound 57, (E)-N-(3,5-bis(trifluoromethyl)phenyl)-4-(3-(4-fluorophenyl)acrylamido)-1-(2-methoxyethyl)piperidine-4-carboxamide]
Kd [1]: 130 nM

CC(C)(O)C(=O)N1CCC(NC(=O)/C=C/c2ccc(F)cc2)(C(=O)Nc2cc(C(F)(F)F)cc(C(F)(F)F)c2)CC1 [Compound 66, (E)-N-(3,5-bis(trifluoromethyl)phenyl)-4-(3-(4-fluorophenyl)acrylamido)-1-(2-hydroxy-2-methylpropanoyl)piperidine-4-carboxamide]
Kd [1]: 1630 nM

CN(CCc1c[nH]c2ccc(F)cc12)C(=O)C1(NC(=O)/C=C/c2ccc(F)cc2)CCN(CC(N)=O)CC1 [Compound 65, (E)-1-(2-amino-2-oxoethyl)-N-(2-(5-fluoro-1H-indol-3-yl)ethyl)-4-(3-(4-fluorophenyl)acrylamido)-N-methylpiperidine-4-carboxamide]
Kd [1]: 2570 nM

CN1CCC(NC(=O)/C=C/c2ccc(F)cc2)(C(=O)Nc2cc(C(F)(F)F)cc(C(F)(F)F)c2)CC1 [Compound 42, (E)-N-(3,5-bis(trifluoromethyl)phenyl)-4-(3-(4-fluorophenyl)acrylamido)-1-methylpiperidine-4-carboxamide]
Kd [3]: 41900 nM | Kd [1]: 220 nM

CN(CCc1c[nH]c2ccc(F)cc12)C(=O)C1(NC(=O)/C=C/c2ccc(F)cc2)CCNCC1 [Compound 49, (E)-N-(2-(5-fluoro-1H-indol-3-yl)ethyl)-4-(3-(4-fluorophenyl)acrylamido)-N-methylpiperidine-4-carboxamide]
Kd [1]: 580 nM

O=C(/C=C/c1ccc(F)cc1)NC1(C(=O)Nc2cc(C(F)(F)F)cc(C(F)(F)F)c2)CCC(O)CC1 (stereo not drawn) [Compound 56, (E)-N-(3,5-bis(trifluoromethyl)phenyl)-1-(3-(4-fluorophenyl)acrylamido)-4-hydroxycyclohexanecarboxamide]
Kd [1]: 1060 nM
